The results in this text go back to patent US20230085307A1, “PYRIDAZINONE COMPOUND AND HERBICIDE” (NISSAN CHEMICAL CORPORATION, priority 2019, published 2023).

SMILES strings stand for the structures.

Experiment [1] has as its system Japanese bulrush. The experiment in a line: Test Example 1: herbicidal activity, application before weed generation under submerged conditions (Table 16, symbol B). Type of experiment: in vivo, Japanese bulrush (Schoenoplectus juncoides). The following applies: amount of applied herbicide 320 g/ha. The method in brief:
(§1)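 Submerged Wagner pots (alluvial soil, 4 cm water) sown with weed seeds and planted with 2.5-leaf rice seedlings; emulsifiable concentrate diluted in water applied to water surface on sowing day. Held in greenhouse at 25-30 °C; injury scored 0-5 by herbicidal rate after three weeks.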

In experiment [2] the test system is green foxtail. Description: Test Example 5: herbicidal effect by foliage application, plastic box (Table 20, symbol G). The experiment is classed as in vivo, green foxtail (Setaria viridis). As to conditions: foliage application, 320 g/ha, three weeks after application. A digest of the protocol:
(§2)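 Plants sown in sterilized diluvial soil and grown 14 days in a greenhouse at 25° C to 30° C, then sprayed on the foliage with the compound's emulsion diluted in water to a predetermined herbicide amount. Injury to weeds and crops scored three weeks after application on a visual rating scale.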

The test system of experiment [3] is blackgrass. The experiment in a line: Test Example 5: herbicidal effect by foliage application, plastic box (Table 20, symbol J). The experiment is classed as in vivo, blackgrass (Alopecurus myosuroides). The following applies: foliage application, 320 g/ha, three weeks after application. A digest of the protocol:
as §2

For experiment [4], the system named is barnyard grass. Description: Test Example 3: herbicidal effect by foliage application, Wagner pot (Table 18, symbol H). Type of experiment: in vivo, barnyard grass (Echinochloa crus-galli). As to conditions: amount of applied herbicide 320 g/ha. A digest of the protocol:
(§3)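 Plants were sown in alluvial soil held under 0.1–0.5 cm standing water and grown 14 days in a greenhouse at 25–30 °C. An emulsifiable formulation, water-diluted to the set dose, was then sprayed onto the foliage, and effects were scored three weeks later using previously defined criteria.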

Experiment [5] has as its system velvetleaf. Description: Test Example 4: herbicidal effect by soil treatment (Table 19, symbol M). Type of experiment: in vivo, velvetleaf (Abutilon theophrasti). The following applies: amount of applied herbicide 320 g/ha. The method in brief:
(§4)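 Seeds were sown in sterilized diluvial soil and covered with about 1.5 cm of soil. An emulsion formulation diluted with water to a predetermined herbicide amount was sprayed evenly onto the soil surface. Plants grew in a greenhouse at 25° C. to 30° C., and the effect was scored three weeks after application using criteria from an earlier test.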

Experiment [6] has as its system barnyard grass. The experiment in a line: Test Example 5: herbicidal effect by foliage application, plastic box (Table 20, symbol H). The experiment is classed as in vivo, barnyard grass (Echinochloa crus-galli). As to conditions: foliage application, 320 g/ha, three weeks after application. A digest of the protocol:
as §2

Experiment [7] concerns velvetleaf. Description: Test Example 5: herbicidal effect by foliage application, plastic box (Table 20, symbol M). The experiment is classed as in vivo, velvetleaf (Abutilon theophrasti). As to conditions: foliage application, 320 g/ha, three weeks after application. The method in brief: as §2
The subject of experiment [8] is rice flat sedge. The experiment in a line: Test Example 3: herbicidal effect by foliage application, Wagner pot (Table 18, symbol E). Type of experiment: in vivo, rice flat sedge (Cyperus iria). As to conditions: amount of applied herbicide 320 g/ha. A digest of the protocol: as §3
Experiment [9] concerns Italian ryegrass. The experiment in a line: Test Example 4: herbicidal effect by soil treatment (Table 19, symbol K). Type of experiment: in vivo, Italian ryegrass (Lolium multiflorum). The following applies: amount of applied herbicide 320 g/ha. A digest of the protocol:
as §4

Experiment [10] concerns windgrass. The experiment in a line: Test Example 5: herbicidal effect by foliage application, plastic box (Table 20, symbol L). Type of experiment: in vivo, windgrass (Apera spica-venti). As to conditions: foliage application, 320 g/ha, three weeks after application. A digest of the protocol: as §2
Experiment [11] concerns persian speedwell. Description: Test Example 4: herbicidal effect by soil treatment (Table 19, symbol R). The experiment is classed as in vivo, Persian speedwell (Veronica persica). As to conditions: amount of applied herbicide 320 g/ha. The method in brief: as §4
The test system of experiment [12] is green foxtail. Description: Test Example 4: herbicidal effect by soil treatment (Table 19, symbol G). The experiment is classed as in vivo, green foxtail (Setaria viridis). The following applies: amount of applied herbicide 320 g/ha. A digest of the protocol:
as §4

Experiment [13] relates to wild oat. The experiment in a line: Test Example 5: herbicidal effect by foliage application, plastic box (Table 20, symbol I). Type of experiment: in vivo, wild oat (Avena fatua). The following applies: foliage application, 320 g/ha, three weeks after application. The method in brief:
as §2

Experiment [14] concerns late watergrass. Description: Test Example 1: herbicidal activity, application before weed generation under submerged conditions (Table 16, symbol A). Type of experiment: in vivo, late watergrass (Echinochloa oryzicola). As to conditions: amount of applied herbicide 320 g/ha. A digest of the protocol:
as §1

Experiment [15] concerns windgrass. Description: Test Example 4: herbicidal effect by soil treatment (Table 19, symbol L). Type of experiment: in vivo, windgrass (Apera spica-venti). As to conditions: amount of applied herbicide 320 g/ha. The method in brief: as §4
In experiment [16] the test system is southern crabgrass. Description: Test Example 4: herbicidal effect by soil treatment (Table 19, symbol F). The experiment is classed as in vivo, southern crabgrass (Digitaria ciliaris). As to conditions: amount of applied herbicide 320 g/ha. A digest of the protocol:
as §4

In experiment [17] the test system is southern crabgrass. Description: Test Example 5: herbicidal effect by foliage application, plastic box (Table 20, symbol F). The experiment is classed as in vivo, southern crabgrass (Digitaria ciliaris). As to conditions: foliage application, 320 g/ha, three weeks after application. The method in brief:
as §2

For experiment [18], the system named is redroot pigweed. The experiment in a line: Test Example 5: herbicidal effect by foliage application, plastic box (Table 20, symbol N). The experiment is classed as in vivo, redroot pigweed (Amaranthus retroflexus). The following applies: foliage application, 320 g/ha, three weeks after application. The method in brief: as §2

Take `CCCC(=O)Oc1c(C)nn(C)c(=O)c1-c1c(-c2ccc3c(c2)OCCO3)sc2cc(F)ccc12` [3-014]: in [1], the “Herbicidal effect, B: Japanese bulrush” value was 3 (Herbicidal rate of 40% or more and less than 70%). For the same compound, in experiment [2], the “G: green foxtail, herbicidal effect grade” value was 3 (Herbicidal rate of 40% or more and less than 70%). Moreover, the “J: blackgrass, herbicidal effect grade” value in experiment [3] was 1 (Herbicidal rate of 5% or more and less than 20%). The “herbicidal effect on H: barnyard grass” value in experiment [4] was 5 (Herbicidal rate of 90% or more (almost completely withered)). In addition, the “herbicidal effect, M: velvetleaf” value in [5] was 0 (Herbicidal rate of 5% or less (almost no effect)). In experiment [6], the “H: barnyard grass, herbicidal effect grade” value is 3 (Herbicidal rate of 40% or more and less than 70%). The “M: velvetleaf, herbicidal effect grade” value in [7] is 5 (Herbicidal rate of 90% or more (almost completely withered)). Besides, the “herbicidal effect on E: rice flat sedge” value in [8] is 4 (Herbicidal rate of 70% or more and less than 90%). In experiment [9], the “herbicidal effect, K: Italian ryegrass” value was 0 (Herbicidal rate of 5% or less (almost no effect)). Moreover, the “L: windgrass, herbicidal effect grade” value in experiment [10] is on record as 0 (Herbicidal rate of 5% or less (almost no effect)). In addition, in experiment [11], the “herbicidal effect, R: persian speedwell” value was 5 (Herbicidal rate of 90% or more (almost completely withered)). Further, the “herbicidal effect, G: green foxtail” value in experiment [12] is given as 0 (Herbicidal rate of 5% or less (almost no effect)). The “I: wild oat, herbicidal effect grade” value in experiment [13] is 1 (Herbicidal rate of 5% or more and less than 20%). Also, in [14], the “Herbicidal effect, A: late watergrass” value was 5 (Herbicidal rate of 90% or more (almost completely withered)). Moreover, the “herbicidal effect, L: windgrass” value in [15] was 0 (Herbicidal rate of 5% or less (almost no effect)). In [16], the “herbicidal effect, F: southern crabgrass” value was 0 (Herbicidal rate of 5% or less (almost no effect)). Also, the “F: southern crabgrass, herbicidal effect grade” value in experiment [17] was 3 (Herbicidal rate of 40% or more and less than 70%). Further, in experiment [18], the “N: redroot pigweed, herbicidal effect grade” value is given as 5 (Herbicidal rate of 90% or more (almost completely withered)).

`CCOC(=O)Oc1c(C)nn(C)c(=O)c1-c1c(-c2ccccc2OC)sc2cc(F)ccc12` [3-024]: the “Herbicidal effect, B: Japanese bulrush” value in experiment [1] is recorded as 0 (Herbicidal rate of 5% or less (almost no effect)). In addition, the “G: green foxtail, herbicidal effect grade” value in [2] is 5 (Herbicidal rate of 90% or more (almost completely withered)); in experiment [12] it was 3 (Herbicidal rate of 40% or more and less than 70%). The “J: blackgrass, herbicidal effect grade” value in [3] was 4 (Herbicidal rate of 70% or more and less than 90%). Also, the “herbicidal effect on H: barnyard grass” value in [4] is listed as 5 (Herbicidal rate of 90% or more (almost completely withered)). Also, the “M: velvetleaf, herbicidal effect grade” value was 3 (Herbicidal rate of 40% or more and less than 70%) in experiment [5]; 5 (Herbicidal rate of 90% or more (almost completely withered)) in experiment [7]. For the same compound, the “H: barnyard grass, herbicidal effect grade” value in experiment [6] was 5 (Herbicidal rate of 90% or more (almost completely withered)). The “herbicidal effect on E: rice flat sedge” value in experiment [8] was 5 (Herbicidal rate of 90% or more (almost completely withered)). In addition, in [9], the “K: Italian ryegrass, herbicidal effect grade” value was 1 (Herbicidal rate of 5% or more and less than 20%). The “L: windgrass, herbicidal effect grade” value in [10] was 5 (Herbicidal rate of 90% or more (almost completely withered)); in experiment [15], 3 (Herbicidal rate of 40% or more and less than 70%). In experiment [11], the “R: persian speedwell, herbicidal effect grade” value is reported as 0 (Herbicidal rate of 5% or less (almost no effect)). For the same compound, the “I: wild oat, herbicidal effect grade” value in experiment [13] was 3 (Herbicidal rate of 40% or more and less than 70%). Moreover, the “Herbicidal effect, A: late watergrass” value in experiment [14] is 3 (Herbicidal rate of 40% or more and less than 70%). In addition, the “F: southern crabgrass, herbicidal effect grade” value in experiment [16] is 3 (Herbicidal rate of 40% or more and less than 70%); in [17] it was 1 (Herbicidal rate of 5% or more and less than 20%). Moreover, in experiment [18], the “N: redroot pigweed, herbicidal effect grade” value is 5 (Herbicidal rate of 90% or more (almost completely withered)).
